Data reported in PMC10135567, “New Indole-3-Propionic Acid and 5-Methoxy-Indole Carboxylic Acid Derived Hydrazone Hybrids as Multifunctional Neuroprotectors” (Antioxidants, 2023).

Columns and labels:
[1] = system: isolated rat-brain synaptosomes; test: 6-OHDA-induced neurotoxicity in isolated rat synaptosomes, synaptosomal viability; type: cell-based; details: 10 µM pre-incubation 30 min, then 150 µM 6-OHDA 1 h; for viability at 10 µM: Rattus norvegicus, read-out: synaptosomal viability (SV) preserved, as compared to 6-OHDA
Description: This neurotoxicity model was based on the metabolism and auto-oxidation of 6-hydroxy dopamine responsible for the reactive oxygen species and quinones generation, ultimately leading to neurotoxicity and neurodegeneration. The experiment was performed by pre-incubation of the synaptosomes with 10 µM of the compounds for 30 min, followed by the addition of 150 µM 6-hydroxy dopamine for induction of neurotoxicity. After 1 h, they were centrifuged twice for 1 min at 15,000 × g. After the second wash, the precipitates were resolved with buffer B and glucose.

[2] = Superoxide radical scavenging, xanthine/xanthine oxidase/NBT system; type: biochemical; details: for increase of absorbance ratio as compared to the controls: 100 µM; for absorbance ratio (NBT reduction, % of control): 1, 10, 50 and 100 µM; for decrease of NBT reduction as compared to the controls: 100 µM (highest tested concentration)
Description: The 1 mL cuvette for the control contained 1 mM xanthine, 20 µL xanthine oxidase (100 IU/L), and 0.04 mM NBT [43, 44]. In the sample compositions, the tested hydrazones at different concentrations were added. All measurement compositions were incubated at 37 °C, and the absorbance was determined spectrophotometrically at 560 nm via Shimadzu UV-1601 UV-vis spectrophotometer.
The potential capability of the investigated compounds to prevent the superoxide-anion radical-induced NBT reduction was investigated spectrophotometrically by xanthine-oxidase assay. The assay was carried out at the final concentration of the tested compounds, at 1, 10, 50, and 100 µM.

[3] = MTT cell viability assay (cytotoxicity), bEnd3; type: cell-based, mouse; details: mouse, bEnd3 brain endothelial cells, 1–500 µM
Description: Mouse-brain endothelial cell line bEnd3 [36] (CRL-2299) was purchased from the American Type Culture Collection (ATCC, Manassas, VA, USA). The cells were cultured in DMEM (Dulbeco’s modified essential medium) (cat. no. 30-2002, ATCC, Manassas, VA, USA), supplemented with 10% heat-inactivated FBS (cat. no. F7524, Sigma-Aldrich Co. LLC, St. Louis, MO, USA), 1 mM L-glutamine (cat. no. G7513, Sigma-Aldrich Co. LLC, St. Louis, MO, USA) and 1× Antibiotic-Antimycotic solution (penicillin: streptomycin: amphotericin B (100 U/mL: 0.10 mg/mL: 0.25 µg/mL) (cat. no. A5955, Sigma-Aldrich Co. LLC, St. Louis, MO, USA) at 37 °C in a humidified atmosphere containing 5% CO2. The cells were passaged in 75 cm^2 flasks every 3–5 days via trypsinization (StableCell Trypsin solution, cat. no. T2610, Sigma-Aldrich Co. LLC, St. Louis, MO, USA).
Cell viability was assessed via the mitochondrial reductase-dependent reaction of (3-(4,5-dimethylthiazol-2-yl)- 2,5-diphenyl tetrazolium bromide (MTT, cat. no. 475989, Calbiochem, Merck KGaA, Darmstadt, Germany). The SH-SY5Y and bEnd3 cell lines were seeded in 96-well plates at a density of 0.7 × 10^4 (bEnd3) or 2 × 10^4 (SH-SY5Y) cells/well and allowed to adhere for 24 h at 37 °C, 5% CO2. Then, the cells were incubated with the compounds (1–500 μM) for a preset time (24 h). For the solvent, the control cells were treated with DMSO corresponding to the highest concentration of DMSO in the samples (0.5% DMSO) in order to exclude its cytotoxic effect on the cells. For each concentration, a set of at least 6 wells were used. After incubation, the solution from each well was exchanged with fresh culture medium (100 µL/well), containing the MTT reagent (0.5 mg/mL) and incubated for 3 h at 37 °C in a humidified atmosphere and 5% CO2. The obtained formazan crystals were dissolved in 100 µL/well of 5% formic acid in propan-2-ol solution (or DMSO). The absorbance was measured at 570 nm via multiplate reader Tecan Infinite F200 PRO (Tecan Trading AG., Männedorf, Switzerland) or Synergy 2 (BioTek Instruments, Inc., Highland Park, Winooski, VT, USA).
Both the SH-SY5Y and bEnd3 cells were treated with the test compounds in a concentration range from 1 to 500 µM for 24 h.

bEnd3 monolayer = test: Permeability assay, static BBB model of bEnd3 monolayer (streptavidin-HRP passage); type: cell-based, mouse; details: 90 min
Description: To evaluate the compounds’ effect on a BBB model, bEnd3 endothelial cells were seeded on polycarbon (PC) cell-culture inserts with 0.4 µm pore size (cat. no. 1CH3.1, BRAND GMBH + CO KG, Wertheim, Germany) and a density of 5.6 × 10^3 cells/insert. The inserts were placed in a 24-well plate containing 1 mL of cell-culture medium. […] On the second day of incubation, the cell-culture medium was refreshed. To ensure 100% confluence, the inserts were evaluated for medium leakage before the experiment. […] Following the incubation, the inserts were placed in a new 24-well plate containing 1 mL Phenol Red free–DMEM (cat. no. D1145, Sigma-Aldrich Co. LLC, St. Louis, MO, USA) without serum. In the upper chamber, a solution of streptavidin, conjugated with horse-radish peroxidase (HRP, cat. no. SA00001-0, Proteintech, Rosemont, Illinois, USA) (1:1000) in serum-free phenol red medium was added. The cells were further incubated for 5 min at 37 °C and 5% CO2, after which the inserts were removed. The remaining medium in the 24-well plate was collected and vortexed briefly, and 3 × 50 µL aliquots were transferred into a 96-well plate. A total of 50 µL TMB Signal+ substrate solution (BUF054A, Bio-Rad, Hercules, CA, USA) was added to each well and incubated for 5 min at 37 °C. The HRP converted the TMB to a blue-colored product. To stop the reaction, 50 µL of 0.2 N H2SO4 was added that caused the blue color to turn yellow. […] Each condition was tested at least twice.
To further explore the neuroprotective effect of the compounds, we tested their ability to influence the BBB and its permeability, utilizing a static BBB model with brain microvascular endothelial cell line bEnd3 [36], as it would be essential for the compounds to pass the BBB and protect the neuronal cells. In addition to their endothelial origin, the bEnd3 cells were strongly connected by specific proteins (ZO-1, claudin-5) forming tight junctions (TJs). This was crucial for preventing unregulated […] transport and sustaining the apical–basal polarity of the monolayer. Here, we determined any changes in the permeability of the BBB by imitating an endothelial barrier via a static BBB model of bEnd3 cells (Figure 11a,c,e). This allowed us to determine the possibility of drug passage. It should be noted, that even though drug passage was desirable, any irreversible modifications of the cell monolayer and the TJs were considered threatening. Therefore, in parallel to the permeability tests, the bEnd3 cells were stained for TJ-formation and ZO-1 distribution (Figure 11b,d,f).

Compound	viability at 10 µM [1] [%]	increase of absorbance ratio as compared to the controls [2] [%]	IC50 at 24 h [3] [µM]	synaptosomal viability (SV) preserved, as compared to 6-OHDA [1] [%]	change of permeability of bEnd3 monolayer vs. control (in words) (bEnd3 monolayer; 50 µM)	absorbance ratio (NBT reduction, % of control) [2]	change of permeability of bEnd3 monolayer vs. control (in words) (bEnd3 monolayer; 10 µM)	melting point [°C]	decrease of NBT reduction as compared to the controls [2]	NBT reduction decreased to ([2]; 10 µM) [%]	influence on the permeability of the monolayer (in words) (bEnd3 monolayer; 10 or 50 µM)	increase in the permeability of bEnd3 monolayer (bEnd3 monolayer; 10 µM) [times]
COc1ccc(C=NNC(=O)c2cc3cc(OC)ccc3[nH]2)c(O)c1 [Compound 5e, N′-(2-Hydroxy-4-methoxybenzylidene)-5-methoxy-1H-indole-2-carbohydrazide]	56	40	12.1	–	–	–	–	–	–	–	–	–
N′-(4-Hydroxy-2-methoxybenzylidene)-3-(1H-indol-3-yl)propanehydrazide [Compound 3e]	–	–	–	33	increased the permeability	approximately 135%	–	–	–	–	–	–
COc1ccc2[nH]c(C(=O)NN=Cc3cccc(O)c3O)cc2c1 [Compound 5a, N′-(2,3-Dihydroxybenzylidene)-5-methoxy-1H-indole-2-carbohydrazide]	56	–	197	–	reduced the permeability	–	passage through the BBB model was induced	262 to 263	less than 15%	–	–	–
COc1ccc2[nH]c(C(=O)NN=Cc3ccc(O)cc3O)cc2c1 [Compound 5c, N′-(2,4-Dihydroxybenzylidene)-5-methoxy-1H-indole-2-carbohydrazide]	44	–	> 500	–	reduced the permeability	did not influence the estimated absorbance ratio at any of the tested concentrations	–	–	–	–	–	–
COc1ccc2[nH]c(C(=O)NN=Cc3cc(OC)c(O)c(OC)c3)cc2c1 [Compound 5f, N′-(4-Hydroxy-3,5-dimethoxybenzylidene)-5-methoxy-1H-indole-2-carbohydrazide]	56	8	184	–	–	–	decreased it	239 to 240	–	–	–	–
COc1ccc2[nH]c(C(=O)NN=Cc3ccc(O)c(O)c3)cc2c1 [Compound 5b, N′-(3,4-Dihydroxybenzylidene)-5-methoxy-1H-indole-2-carbohydrazide]	44	–	158	–	reduced the permeability	–	passage through the BBB model was induced	252 to 253	–	20	–	–
COc1ccc2[nH]c(C(=O)NN=Cc3ccc(O)c(OC)c3)cc2c1 [Compound 5d, N′-(4-Hydroxy-3-methoxybenzylidene)-5-methoxy-1H-indole-2-carbohydrazide]	44	23	353	–	–	–	decreased it	261	–	–	–	–
COc1ccc2[nH]cc(CCNC(C)=O)c2c1 [Melatonin]	78	–	> 500	–	–	–	–	–	–	–	did not influence the permeability	–
COc1cc(C=NNC(=O)CCc2c[nH]c3ccccc23)ccc1O [Compound 3d, N′-(4-Hydroxy-3-methoxybenzylidene)-3-(1H-indol-3-yl)propanehydrazide]	33	–	367	–	increased the permeability	–	–	157 to 158	less than 15%	–	–	–
COc1cc(C=NNC(=O)CCc2c[nH]c3ccccc23)cc(OC)c1O [Compound 3f, N′-(4-Hydroxy-3,5-dimethoxybenzylidene)-3-(1H-indol-3-yl)propanehydrazide]	44	–	> 500	–	increased the permeability	–	–	134 to 135	less than 15%	–	–	0.5
